Bounds are passed on as bounds.

The subject of test [1] is MCF7. The test is described as follows: Antiproliferative activity against human MCF7 cells assessed as survival rate at 5 uM incubated for 72 hrs by MTT assay. Format: functional. The following applies: read-out: Survival. (In general: Tetrazolium assays rely on reduction of a dye to a coloured formazan, in cell work by metabolically active cells.)
For test [2], the system named is MCF7. Briefly: Antiproliferative activity against human MCF7 cells incubated for 72 hrs by MTT assay. Format: functional, cell-based. Particulars: MCF7, 72 h.
Test [3] concerns NCI/ADR-RES. The test is described as follows: Reversal of paclitaxel resistance in human MCF7ADR cells assessed as reversal fold by measuring ratio of paclitaxel IC50 to paclitaxel IC50 in presence of test compound at 5 uM incubated for 72 hrs by MTT assay. Format: functional.
The subject of test [4] is NCI/ADR-RES. The test is described as follows: Antiproliferative activity against human MCF7ADR cells incubated for 72 hrs by MTT assay. The test is classed as functional, cell-based.
Test [5] deals with NCI/ADR-RES. Briefly: Antiproliferative activity against human MCF7ADR cells assessed as survival rate at 5 uM incubated for 72 hrs by MTT assay. The test is classed as functional. Particulars: read-out: Survival.
In test [6] the test system is NCI/ADR-RES. Briefly: Reversal of paclitaxel resistance in human MCF7ADR cells assessed as reduction in paclitaxel IC50 at 5 uM pretreated with compound for 4 hrs followed by paclitaxel addition and measured after 72 hrs by MTT assay (reference value: 6.68 +/- 0.35 microM). The test is classed as functional, cell-based.

One may read the IC50 as the concentration at which inhibition is half-maximal. As to `COc1cc(-c2c(C)nc3ccnn3c2-c2cc(OC)c(OC)c(OC)c2)cc(OC)c1OC`, the viability at 5 µM in test [1] and in test [5] was over 99% in each case. For the same compound, the results for the IC50 in test [2], in test [4] and in test [6] were over 20 µM, over 20 µM and 2.12 µM, respectively. The Ratio in test [3] worked out at 3.15.
Take `COc1cc(-c2c(C)nc3cc(C4CC4)nn3c2-c2cc(OC)c(OC)c(OC)c2)cc(OC)c1OC`: the viability at 5 µM in test [1] was 95.6%; in test [5], 90.5%. Moreover, the IC50 was over 20 µM in test [2], over 20 µM in test [4] and 0.1 µM in test [6]. In addition, the Ratio in test [3] amounted to 66.8.
`COc1cc(-c2c(-c3ccc(Br)cc3)c(C)nc3cc(-c4ccccc4)nn23)cc(OC)c1OC`: the viability at 5 µM in test [1] was 95.2%; in test [5], 95.1%. Besides, the IC50 in test [2] is over 20 µM; in test [4], over 20 µM; in test [6], 0.053 µM. In test [3], the Ratio stood at 126.03.
`COc1cc(-c2c(C)nc3cc(-c4ccccc4)nn3c2-c2cc(OC)c(OC)c(OC)c2)cc(OC)c1OC`: the viability at 5 µM in test [1] turned out to be 96.2%; in test [5] it was 93.5%. Besides, the IC50 in test [2] was over 20 µM; in test [4] it was over 20 µM; in test [6], 0.03 µM. For the same compound, in test [3], the Ratio is 222.66.
On to `COc1cc(-c2c(-c3ccc(Cl)cc3)c(C)nc3cc(-c4ccco4)nn23)cc(OC)c1OC`, for which the viability at 5 µM in test [1] turned out to be 95.8%; in test [5], 94.7%. Also, the IC50 in test [2] was over 20 µM; in test [4] it was over 20 µM; in test [6] it was 4.3 µM. Moreover, in test [3], the Ratio is given as 1.55.
Consider `COc1ccc(-c2c(C)nc3cc(-c4cccs4)nn3c2-c2cc(OC)c(OC)c(OC)c2)cc1OC`, for which the viability at 5 µM in test [1] was found to be 94.1%; in test [5], 94.6%. Besides, the IC50 in test [2] was over 20 µM; in test [4], over 20 µM; in test [6], 0.031 µM. Also, in test [3], the Ratio is 215.48.
Turning to `COc1cc(-c2c(-c3ccc(Cl)cc3)c(C)nc3cc(-c4ccccc4)nn23)cc(OC)c1OC`, the viability at 5 µM came to 94.2% in test [1] and 90.3% in test [5]. Moreover, the figures for the IC50 in test [2], in test [4] and in test [6] were over 20 µM, over 20 µM and 0.074 µM, respectively. In addition, the Ratio in test [3] worked out at 90.27.
As to `COc1ccc(-c2c(C)nc3ccnn3c2-c2cc(OC)c(OC)c(OC)c2)cc1`, the viability at 5 µM in test [1] and in test [5] was over 99% in each case. For the same compound, the IC50 in test [2] was over 20 µM; in test [4], over 20 µM; in test [6], 3.12 µM. Further, the Ratio in test [3] came to 2.14.
As for `COc1ccc(-c2c(C)nc3cc(-c4ccco4)nn3c2-c2cc(OC)c(OC)c(OC)c2)cc1`, the viability at 5 µM was found to be 90.8% in test [1] and 93.1% in test [5]. The IC50 in test [2] is 9.53 µM; in test [4], over 20 µM; in test [6] it was 0.1 µM. For the same compound, in test [3], the Ratio was found to be 66.8.
Take `COc1cc(-c2c(-c3ccc(F)cc3)c(C)nc3cc(-c4cccs4)nn23)cc(OC)c1OC`: the viability at 5 µM stood at 95.6% in test [1] and 90.7% in test [5]. In addition, the IC50 in test [2] was over 20 µM; in test [4], over 20 µM; in test [6], 0.12 µM. For the same compound, in test [3], the Ratio stood at 55.67.
`COc1ccc(-c2c(C)nc3ccnn3c2-c2cc(OC)c(OC)c(OC)c2)cc1OC`: the viability at 5 µM in test [1] and in test [5] was over 99% each time. The IC50 is over 20 µM in test [2], over 20 µM in test [4] and 2.35 µM in test [6]. The Ratio in test [3] is 2.84.
Regarding `COc1cc(-c2c(C)nc3cc(-c4ccco4)nn3c2-c2cc(OC)c(OC)c(OC)c2)cc(OC)c1OC`, the viability at 5 µM in test [1] is 95.1%; in test [5] it was 89.9%. Further, the IC50 in test [2] is over 20 µM; in test [4], over 20 µM; in test [6], 0.044 µM. Moreover, the Ratio in test [3] is 151.81.
